The record followed here is patent publication US12077503B2, “Substituted cyclic amides and their use as herbicides” (FMC CORPORATION, priority 2015, dated 2024).

Format in all cases: in vivo
Experiment [1] deals with ryegrass, Italian (Italian ryegrass, Lolium multiflorum). The experiment in a line: Test A preemergence. The conditions noted are these: Lolium multiflorum, pre-emergence, 240 h; for pest or weed control at 125 g/ha: 125 g ai/ha, preemergence, 0 to 100 scale where 0 is no effect and 100 is complete control, read-out: Ryegrass, Italian plant response rating; for pest or weed control at 500 g/ha: 500 g ai/ha, Preemergence, visual injury vs untreated controls after approximately 10 d, read-out: Ryegrass, Italian plant response rating (0 to 100 scale where 0 is no effect and 100 is complete control). The method in brief:
(§1)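 Seeds sprayed preemergence with a directed soil spray, or plants at 2 to 10 cm height and one- to two-leaf stage sprayed postemergence, with test chemicals in a non-phytotoxic solvent mixture containing surfactant, in loam soil–sand blend. Injury rated visually against untreated controls after about 10 d in greenhouse, 0 (no effect) to 100 (complete control).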

Experiment [2] concerns Galium (catchweed bedstraw, Galium aparine). In words: Test A postemergence. The settings on record: Galium, post-emergence, 240 h, 125 g ai/ha, postemergence, visual injury rating after approximately 10 d; read-out: Galium plant response rating (0 to 100 scale, 0 no effect, 100 complete control). The method in brief:
as §1

The next experiment relates to Kochia (Kochia scoparia). In words: Test A postemergence. The conditions noted are these: Bassia scoparia, post-emergence, 240 h, 125 g ai/ha, postemergence, visual injury rating after approximately 10 d; read-out: Kochia plant response rating (0 to 100 scale, 0 no effect, 100 complete control). The method in brief: as §1
Experiment [3] concerns barnyardgrass (Echinochloa crus-galli). In words: Test A postemergence. The conditions noted are these: Echinochloa crus-galli, post-emergence, 240 h, 125 g ai/ha, postemergence, visual injury rating after approximately 10 d; read-out: Barnyardgrass plant response rating (0 to 100 scale, 0 no effect, 100 complete control). The method in brief:
as §1

Experiment [4] concerns blackgrass (Alopecurus myosuroides). The experiment in a line: Test A postemergence. The conditions noted are these: Alopecurus myosuroides, post-emergence, 240 h, 125 g ai/ha, postemergence, visual injury rating after approximately 10 d; read-out: Blackgrass plant response rating (0 to 100 scale, 0 no effect, 100 complete control). The method in brief: as §1
For the next experiment, the system named is corn (Zea mays). The experiment in a line: Test A postemergence. The settings on record: Zea mays, post-emergence, 240 h, 125 g ai/ha, postemergence, visual injury rating after approximately 10 d; read-out: Corn plant response rating (0 to 100 scale, 0 no effect, 100 complete control). Summed up:
as §1

Experiment [5] has as its system giant foxtail (Setaria faberii). In words: Test A postemergence. The settings on record: Setaria faberi, post-emergence, 240 h, 125 g ai/ha, postemergence, visual injury rating after approximately 10 d; read-out: Foxtail, Giant plant response rating (0 to 100 scale, 0 no effect, 100 complete control). Summed up:
as §1

For experiment [6], the system named is pigweed (Amaranthus retroflexus). In words: Test A postemergence. The settings on record: Amaranthus retroflexus, post-emergence, 240 h, 125 g ai/ha, postemergence, visual injury rating after approximately 10 d; read-out: Pigweed plant response rating (0 to 100 scale, 0 no effect, 100 complete control). The method in brief:
as §1

Experiment [7] deals with ragweed (common ragweed, Ambrosia elatior). In words: Test A postemergence. The settings on record: Ambrosia artemisiifolia, post-emergence, 240 h, 125 g ai/ha, postemergence, visual injury rating after approximately 10 d; read-out: Ragweed plant response rating (0 to 100 scale, 0 no effect, 100 complete control). The method in brief: as §1
For experiment [8], the system named is ryegrass, Italian (Italian ryegrass, Lolium multiflorum). The experiment in a line: Test A postemergence. The settings on record: Lolium multiflorum, post-emergence, 240 h, 125 g ai/ha, postemergence, visual injury rating after approximately 10 d; read-out: Ryegrass, Italian plant response rating (0 to 100 scale, 0 no effect, 100 complete control). Summed up:
as §1

Experiment [9] deals with wheat (Triticum aestivum). The experiment in a line: Test A postemergence. The conditions noted are these: Triticum aestivum, post-emergence, 240 h, 125 g ai/ha, postemergence, visual injury rating after approximately 10 d; read-out: Wheat plant response rating (0 to 100 scale, 0 no effect, 100 complete control). The method in brief: as §1
In experiment [10] the test system is barnyardgrass (Echinochloa crus-galli). In words: Test B flooded paddy test. The conditions noted are these: Echinochloa crus-galli, Flood, 250 g ai/ha; scale of 0 to 100 where 0 is no effect and 100 is complete control; read-out: Barnyardgrass plant response rating. The method in brief: (§2)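 Flooding to 3 cm over soil accompanied treatment, which consisted of adding compound to the standing water around 2-leaf plants; depth was then maintained. Visual assessment versus controls followed at 13 to 15 d (scale 0–100, 0 meaning no effect).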

In experiment [11] the test system is ducksalad (Heteranthera limosa). The experiment in a line: Test B flooded paddy test. The settings on record: Heteranthera limosa, Flood, 250 g ai/ha; scale of 0 to 100 where 0 is no effect and 100 is complete control; read-out: Ducksalad plant response rating. The method in brief: as §2
The test system of a further experiment is rice (Oryra sativa). In words: Test B flooded paddy test. The conditions noted are these: Oryza sativa, Flood, 250 g ai/ha; scale of 0 to 100 where 0 is no effect and 100 is complete control; read-out: Rice plant response rating. Summed up:
as §2

Experiment [12] relates to sedge, umbrella (small-flower umbrella sedge, Cyperus difformis). In words: Test B flooded paddy test. The conditions noted are these: Cyperus difformis, Flood, 250 g ai/ha; scale of 0 to 100 where 0 is no effect and 100 is complete control; read-out: Sedge, Umbrella plant response rating. Summed up:
as §2

With `Cc1c(F)ccc([C@H]2CN(C)C(=O)[C@@H]2C(=O)Nc2ccc(F)cc2F)c1F` [Compound 835], the pest or weed control at 125 g/ha stood at 30% in [1]; 30% in experiment [2]; 0% with Kochia (Kochia scoparia); 90% in [3]; 40% in experiment [4]; 90% in experiment [5]. Further, the pest or weed control at 125 g/ha came out at 20% in [6], 0% in experiment [7] and 50% in [8]. Moreover, the pest or weed control at 500 g/ha in experiment [1] worked out at 70%. Besides, the plant injury at 125 g/ha stood at 30% with corn (Zea mays) and 0% in [9]. Further, the pest or weed control at 250 g/ha in experiment [10] worked out at 50%; in [11], 70%; in the experiment on rice (Oryra sativa), 20%; in experiment [12], 0%.

As to `CSc1ccccc1NC(=O)[C@H]1C(=O)N(C)C[C@@H]1c1cc(C)cc(F)c1` [Compound 851], the pest or weed control at 125 g/ha in [1] came out at 0%; in experiment [2], 30%; in the experiment on Kochia (Kochia scoparia), 0%; in experiment [3], 90%; in [4], 0%; in [5], 90%. Besides, the pest or weed control at 125 g/ha in experiment [6], in [7] and in experiment [8] was 0% in each case. In addition, in [1], the pest or weed control at 500 g/ha stood at 70%. Further, the plant injury at 125 g/ha in the experiment with corn (Zea mays) amounted to 0%; in [9], 20%. The pest or weed control at 250 g/ha in experiment [10] worked out at 0%; in experiment [11], 90%; in the experiment with rice (Oryra sativa), 0%; in [12], 0%.

For `COc1cc([C@H]2CN(C)C(=O)[C@@H]2C(=O)Nc2ccccc2F)cc(C(F)(F)F)c1` [Compound 855], the pest or weed control at 125 g/ha amounted to 0% in experiment [1]; 0% in [2]; 0% in the experiment on Kochia (Kochia scoparia); 90% in experiment [3]; 60% in experiment [4]; 90% in [5]. Further, the figures for the pest or weed control at 125 g/ha in [6], in experiment [7] and in experiment [8] were 20%, 0% and 20%, respectively. Further, in experiment [1], the pest or weed control at 500 g/ha was 30%. In addition, the plant injury at 125 g/ha in the experiment on corn (Zea mays) was 70%; in experiment [9] it was 50%. In addition, the pest or weed control at 250 g/ha in [10] was 70%; in [11] it was 75%; with rice (Oryra sativa) it was 0%; in [12], 0%.

On to `CN1C[C@H](c2cccc(OC(F)(F)C(F)F)c2)[C@@H](C(=O)Nc2ccccc2S(C)(=O)=O)C1=O` [Compound 864], for which the pest or weed control at 125 g/ha in experiment [1] was 0%; in experiment [2], 20%; in the experiment with Kochia (Kochia scoparia), 0%; in experiment [3], 90%; in experiment [4] it was 50%; in [5], 70%. The results for the pest or weed control at 125 g/ha in experiment [6], in experiment [7] and in experiment [8] were 20%, 0% and 50%, respectively. The pest or weed control at 500 g/ha in [1] is 50%. For the same compound, the plant injury at 125 g/ha in the experiment with corn (Zea mays) was 60%; in [9], 50%. Besides, the pest or weed control at 250 g/ha in experiment [10] came to 50%; in experiment [11], 90%; with rice (Oryra sativa) it was 40%; in experiment [12], 50%.

For `CN1C[C@H](c2cc(F)cc(F)c2)[C@@H](C(=O)Nc2ccc(C(F)(F)F)cn2)C1=O` [Compound 869], the pest or weed control at 125 g/ha in experiment [1] came to 0%; in experiment [2], 0%; in the experiment on Kochia (Kochia scoparia) it was 0%; in experiment [3], 80%; in experiment [4] it was 0%; in experiment [5], 60%. Moreover, the pest or weed control at 125 g/ha in [6], in experiment [7] and in experiment [8] was 0% in each case. For the same compound, the pest or weed control at 500 g/ha in experiment [1] was 0%. Moreover, the plant injury at 125 g/ha (with corn (Zea mays); in [9]) was 0% throughout. Besides, the pest or weed control at 250 g/ha was 0% in experiment [10], 60% in experiment [11], 0% in the experiment with rice (Oryra sativa) and 0% in experiment [12].

With `CN1C[C@H](c2cc(F)cc(F)c2)[C@@H](C(=O)Nc2ccc(C(F)(F)F)nc2)C1=O` [Compound 870], the pest or weed control at 125 g/ha (in experiment [1]; in [2]; in the experiment with Kochia (Kochia scoparia); in [3]; in experiment [4]; in [5]) was 0% each time. Also, the pest or weed control at 125 g/ha in experiment [6], in [7] and in experiment [8] was 0% throughout. Moreover, the pest or weed control at 500 g/ha in experiment [1] stood at 0%. Also, the plant injury at 125 g/ha (with corn (Zea mays); in experiment [9]) was 0% in each case. Besides, the pest or weed control at 250 g/ha (in experiment [10]; in [11]; with rice (Oryra sativa); in [12]) was 0% in each case.

Take `CN1C[C@H](c2cccc(COC(F)F)c2)[C@@H](C(=O)Nc2cccc(F)c2F)C1=O` [Compound 873]: the pest or weed control at 125 g/ha in [1] turned out to be 50%; in [2] it was 50%; in the experiment with Kochia (Kochia scoparia) it was 60%; in experiment [3], 90%; in [4], 50%; in [5] it was 90%. For the same compound, the pest or weed control at 125 g/ha amounted to 30% in experiment [6], 30% in [7] and 40% in [8]. In [1], the pest or weed control at 500 g/ha came out at 80%. Besides, the plant injury at 125 g/ha in the experiment with corn (Zea mays) is 70%; in experiment [9], 30%. Further, the pest or weed control at 250 g/ha stood at 85% in [10], 100% in [11], 0% in the experiment with rice (Oryra sativa) and 50% in experiment [12].
